Source: PMC7897990, “TriTOX: A novel Trichomonas vaginalis assay platform for high-throughput screening of compound libraries” (International Journal for Parasitology: Drugs and Drug …, 2021)
Where a name gives a salt, the structure may show the parent alone. Read-outs that look alike come from different tables or passages of the source.

Legend:
[1] = system: Trichomonas vaginalis G3 trophozoites; assay: microbe, parasite or virus in culture; conditions: 48 h
[2] = system: nontumorigenic neonatal foreskin fibroblast (NFF) cell line
[3] = system: Trichomonas vaginalis G3 trophozoites; conditions: for T.vaginalis_Absorbance_Rep1 / T.vaginalis_Absorbance_Rep2: HTS, parasite screen at 1 µg/mL; for T.vaginalis_Absorbance_Rep1: replicate 1, raw absorbance; for T.vaginalis_Absorbance_Rep2: replicate 2, raw absorbance
[4] = read-out: T.vaginalis_%inb_Rep1
[5] = read-out: T.vaginalis_%inb_Rep2
[6] = NFF fibroblasts, single concentration 5 µg/mL
[7] = NFF fibroblast screen at 5 µg/mL, A = active, I = inactive

| SMILES | inhibition of growth at 1 µg/mL [1, 4] [%] | inhibition of growth at 1 µg/mL [1, 5] [%] | NFF_Activity ([2]; NFF_NS1 screen at 5 µg/mL) | T.vaginalis_Absorbance_Rep1 [3] | T.vaginalis_Absorbance_Rep2 [3] | selectivity: anti-trichomonal vs anti-tumour (NS-1) and cytotoxic (NFF) activity ([3]; single concentration screens of the same library, NS-1/NFF active if >25% inhibition) | NFF_Activity [2, 6] | NFF_Activity [2, 7] | NFF_Activity [2] |
| --- | --- | --- | --- | --- | --- | --- | --- | --- | --- |
| C/C(=C\c1csc(C)n1)[C@@H]1C[C@@H]2O[C@]2(C)CCC[C@H](C)[C@H](O)[C@@H](C)C(=O)C(C)(C)[C@@H](O)CC(=O)O1 [epothilone B, reference compound] | 74.9 | 67.3 | I (otherwise these were reported as inactive (I)) | 2.179 | 1.684 | selective for T. vaginalis | – | – | – |
| Cc1cc(O)c(C=O)c2c1C(=O)Oc1c(COC(=O)/C=C/C(=O)O)c(O)c(C(=O)O)c(C)c1O2 [Fumarprotocetraric acid] | 13.1 | 15.8 | I (otherwise these were reported as inactive (I)) | 0.953 | 0.839 | – | – | – | – |
| C=CC(C)(C)c1[nH]c2c(CC=C(C)C)cc(CC=C(C)C)cc2c1C[C@@H]1NC(=O)[C@H](C)NC1=O [Echinulin] | 15.7 | 16.6 | I (otherwise these were reported as inactive (I)) | 1.001 | 0.85 | – | – | – | – |
| CCCCC[C@@H](O)[C@H]1C(=O)O[C@H](C)[C@@H](O)/C=C/C=C/C=C/C=C/C=C(\C)[C@@H](O)C[C@H](O)C[C@H](O)C[C@H](O)C[C@H](O)C[C@H](O)C[C@@H]1O [Filipin III] | 15.8 | 12.6 | I (otherwise these were reported as inactive (I)) | 1.003 | 0.794 | – | – | – | – |
| C=C1C[C@@]23C=CC(=O)[C@@](C)(CCC(=O)Nc4c(O)ccc(C(=O)O)c4O)[C@@H]2C[C@@H]1CC3 [Platencin] | 11.3 | 10.7 | – | – | – | – | I (otherwise these were reported as inactive (I)) | – | – |
| CC1(C)C=Cc2cc3ccc(=O)oc3cc2O1 [Xanthyletin] | 12 | 15.5 | – | – | – | – | – | I (otherwise these were reported as inactive (I)) | – |
| CC(C)=C[C@H]1C[C@H](C)[C@]2(CC[C@]3(C)C[C@H]4[C@H](C(=O)C[C@@]4(C)O)/C(C=O)=C\C[C@H]32)O1 [Ophiobolin A] | 14.2 | 13 | – | – | – | – | A (active (A) compounds having >25% inhibitory activity) | – | – |
| O=C(c1cc(Cl)c(Cl)[nH]1)c1c(O)cccc1O [Pyoluteorin] | 6.82 | 7.19 | – | – | – | – | I (otherwise these were reported as inactive (I)) | – | – |
| CC12C[C@@]34C=CC(=O)[C@@](C)(CCC(=O)Nc5c(O)ccc(C(=O)O)c5O)C3[C@H](CC1C4)O2 (stereo partly drawn) [Platensimycin] | 11.3 | 10 | – | – | – | – | I (otherwise these were reported as inactive (I)) | – | – |
| CCCCCCC(=O)CCCCCC/C=C/C[C@@H](O)[C@H](O)[C@@](N)(CO)C(=O)O [Myriocin] | 10.9 | 15.1 | – | – | – | – | I (otherwise these were reported as inactive (I)) | – | – |
| CO[C@@]12[C@H](COC(N)=O)C3=C(C(=O)C(C)=C(N)C3=O)N1C[C@@H]1N[C@@H]12 [Mitomycin C] | 11.5 | 3.72 | – | – | – | – | I (otherwise these were reported as inactive (I)) | – | – |
| Cc1nnc2n1-c1sc(CCC(=O)N3CCOCC3)cc1C(c1ccccc1Cl)=NC2 [WEB 2086] | 9.91 | 13.4 | – | – | – | – | – | I (otherwise these were reported as inactive (I)) | – |
| COc1cc(C(=O)O)c2c(c1C)OC(=O)c1c(C)cc(O)c(C=O)c1O2 [Psoromic acid] | 13.9 | 10.4 | – | – | – | – | I (otherwise these were reported as inactive (I)) | – | – |
| C=C[C@]1(C)C[C@@H](OC(=O)CSCCN(CC)CC)[C@]2(C)[C@H](C)CC[C@]3(CCC(=O)[C@H]32)[C@@H](C)[C@@H]1O [Tiamulin] | 12.6 | 13.9 | – | – | – | – | – | I (otherwise these were reported as inactive (I)) | – |
| Cc1cc(O)c(C=O)c2c1C(=O)Oc1c(C)c(O)c3c(c1O2)C(O)OC3=O (stereo not drawn) [Norstictic acid] | 13.7 | 12.1 | – | – | – | – | I (otherwise these were reported as inactive (I)) | – | – |
| CC/C=C\[C@H](O)[C@H](O)C1=C(C)C(=O)[C@]2(O1)C(=O)N[C@@](OC)(C(=O)c1ccccc1)[C@@H]2O [Pseurotin A] | 11.5 | 11.5 | – | – | – | – | I (otherwise these were reported as inactive (I)) | – | – |
| C[C@H]1C(=O)O[C@@H]2CCN3CC=C(COC(=O)[C@](C)(O)[C@]1(C)O)[C@H]23 [Monocrotaline] | 8.98 | 13.2 | – | – | – | – | I (otherwise these were reported as inactive (I)) | – | – |
| CC=C1CN(C)C2Cc3c([nH]c4ccccc34)C(c3cc4[nH]c5c(c4cc3OC)CCN3CC4CC(CC)C3C5(C(=O)OC)C4)CC1C2C(=O)OC (stereo not drawn) [Voacamine] | 9.44 | 11.1 | – | – | – | – | – | I (otherwise these were reported as inactive (I)) | – |
| CN[C@H](CC(C)C)C(=O)N[C@H]1C(=O)N[C@@H](CC(N)=O)C(=O)N[C@H]2C(=O)N[C@H]3C(=O)N[C@H](C(=O)N[C@H](C(=O)O)c4cc(O)cc(O)c4-c4cc3ccc4O)[C@H](O)c3ccc(c(Cl)c3)Oc3cc2cc(c3O[C@@H]2O[C@H](CO)[C@@H](O)[C@H](O)[C@H]2O[C@H]2C[C@](C)(N)[C@H](O)[C@H](C)O2)Oc2ccc(cc2Cl)[C@H]1O [Vancomycin hydrochloride] | 1.36 | 5.42 | – | – | – | – | – | – | I (key: active (A) compounds having >25% inhibitory activity; otherwise these were reported as inactive (I)) |
| O=C1Cc2ccccc2N1 [Oxindole] | 12.2 | 14.4 | – | – | – | – | I (otherwise these were reported as inactive (I)) | – | – |
| CN(C)c1ncnc2c1ncn2[C@@H]1O[C@H](CO)[C@@H](N)[C@H]1O [Puromycin aminonucleoside] | 15.7 | 13 | – | – | – | – | I (otherwise these were reported as inactive (I)) | – | – |
| C=C(CC[C@]12O[C@H](C(=O)O)[C@@](O)(C(=O)O)[C@](C(=O)O)(O1)[C@H](OC(=O)/C=C/[C@@H](C)C[C@@H](C)CC)[C@H]2O)[C@@H](OC(C)=O)[C@H](C)Cc1ccccc1 [Zaragozic acid A] | 9.75 | 7.01 | – | – | – | – | – | I (otherwise these were reported as inactive (I)) | – |
| CC[C@H]1OC(=O)C[C@@H](O)[C@H](C)[C@@H](O[C@@H]2O[C@H](C)[C@@H](O)[C@H](N(C)C)[C@H]2O)[C@@H](CCN2C[C@H](C)C[C@H](C)C2)C[C@@H](C)C(=O)/C=C/C(C)=C/[C@@H]1CO[C@@H]1O[C@H](C)[C@@H](O)[C@@H](OC)[C@H]1OC [Tilmicosin] | 2.41 | 4.94 | – | – | – | – | – | I (otherwise these were reported as inactive (I)) | – |
| C/C=C(\C)[C@H](O)[C@H](C)/C=C(C)/C=C/C/C(C)=C/Cc1nc(OC)c(OC)c(O)c1C [Piericidin A] | 11.3 | 4.17 | – | – | – | – | I (otherwise these were reported as inactive (I)) | – | – |
| COc1ccc2c3c4n(c2c1)[C@H](C=C(C)C)OOC(C)(C)C[C@@H]4N1C(=O)[C@@H]2CCCN2C(=O)[C@]1(O)[C@H]3O [Verruculogen] | 10.3 | 10.6 | – | – | – | – | – | I (otherwise these were reported as inactive (I)) | – |
| CO/N=C1\C[C@]2(C[C@@H]3C[C@@H](C/C=C(\C)C[C@@H](C)/C=C/C=C4\CO[C@@H]5[C@H](O)C(C)=C[C@@H](C(=O)O3)[C@]45O)O2)O[C@H](/C(C)=C/C(C)C)[C@H]1C [Moxidectin] | 9.23 | 6.09 | – | – | – | – | I (otherwise these were reported as inactive (I)) | – | – |
| O=c1[nH]c2ccccc2c(-c2ccccc2)c1O [Viridicatin] | 10.7 | 15.1 | – | – | – | – | – | I (otherwise these were reported as inactive (I)) | – |
| C[C@H]1CCCC(=O)CCC/C=C/c2cc(O)cc(O)c2C(=O)O1 [Zearalenone] | 7.39 | 12 | – | – | – | – | – | I (otherwise these were reported as inactive (I)) | – |
